For test [1], the target named is T1, rat ASIC1a (Rattus norvegicus, UniProt P55926).
T1 construct: expressed in transfected cells
T1 sequence (P55926 1-526): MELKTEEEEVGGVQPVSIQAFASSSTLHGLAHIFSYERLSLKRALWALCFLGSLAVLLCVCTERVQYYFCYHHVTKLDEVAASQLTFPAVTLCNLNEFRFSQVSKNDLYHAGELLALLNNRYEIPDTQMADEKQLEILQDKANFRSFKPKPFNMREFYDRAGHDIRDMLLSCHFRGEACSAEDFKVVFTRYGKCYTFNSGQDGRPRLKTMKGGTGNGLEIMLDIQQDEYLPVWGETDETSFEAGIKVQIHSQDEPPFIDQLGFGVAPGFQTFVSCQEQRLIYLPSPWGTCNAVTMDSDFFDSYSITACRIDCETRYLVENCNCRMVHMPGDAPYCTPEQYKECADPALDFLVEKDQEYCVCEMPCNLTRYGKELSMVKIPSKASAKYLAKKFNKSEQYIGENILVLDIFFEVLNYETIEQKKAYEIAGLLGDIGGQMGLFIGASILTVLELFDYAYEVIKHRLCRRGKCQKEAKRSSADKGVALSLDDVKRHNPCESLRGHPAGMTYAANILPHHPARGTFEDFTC
Kind of test: Whole-cell patch clamp: inhibition of acid-induced current in CHO cells stably expressing rat ASIC1a. Format: cell-based. The conditions noted are these: 30 µM. Here is the method: (§1) Chinese Hamster Ovary (CHO) cells stably expressing rat ASIC1a were cultured in Ham’s F12, supplemented with 10% FBS, 1% penicillin–streptomycin and 500 µg/mL G418 and incubated at 37 °C with 5% CO2. Transient transfections of rASIC1a and cASIC1 wild-type or mutant channels in CHO cells were performed with Lipofectamine 3000 (Thermo Fisher Scientific) according to the manufacturer’s recommendations. The green fluorescent protein (GFP) cDNA (at 1/10 the amount of channel cDNA) was co-transfected with channel cDNA to aid the identification of transfected cells under the microscope in patch clamp experiments. All cDNAs were sequence verified.
(§2) Cells were freshly dissociated with CellStripper (Corning) and dispersed in a chamber on the stage of an inverted microscope. Upon formation of the whole-cell conformation, the cell was lifted from the bottom of the chamber and placed at the tip of a tubing perfusing an extracellular solution containing (in mM): 149 NaCl, 2 CaCl2, 4 KCl, 1 MgCl2, 5 glucose, 10 HEPES, pH 7.4, 310 mOsm/L. Extracellular solutions at more basic or acidic pHs were made by titrating the above pH 7.4 solution with NaOH or HCl (5 mM MES was added to solutions at pH 6.0 and lower). Pipette electrodes were filled with an intracellular solution containing (in mM): 135 KCl, 4 MgATP, 0.3 Na2GTP, 10 EGTA, and 20 HEPES, pH 7.2, 290 mOsm/L.
(§3) All recordings were performed at room temperature using an Axopatch 200B amplifier and pClamp 11 software (Molecular Devices). Currents were measured by whole-cell patch clamp, digitized at 10 kHz and lowpass filtered at 2 kHz. Series resistance was 75% compensated. Responses were elicited by rapid perfusion of acidic solutions using the SF-77B Fast-Step Perfusion device (Warner Instruments) for 40 ms once every 30 s (unless indicated otherwise) and recorded till steady state was reached. The holding potential was 0 mV unless indicated otherwise.
(§4) Baseline values (i.e., current amplitudes at the conditioning pH) were subtracted to obtain responses evoked by the test pH. Responses were normalized for each cell before averaging (see figure legends for more detail on normalization for each type of experiment). Concentration–response data were fitted to a logistic function of the form: R = (A1–A2)/(1 + (C/C0)^h)+A2, where R is the normalized response, C is either pH or compound concentration, C0 is the pH/concentration at which half-maximal response occurs (pH50 or IC50), h is the Hill coefficient, and A1 and A2 are constants. Kinetic parameters were obtained by fitting the data with either a single or double exponential function. Fitted data are shown as solid, dashed, or dotted curves.

The target in test [2] is T1, rat ASIC1a. Kind of test: pH dependence of steady-state desensitization (whole-cell patch clamp). The format is cell-based. As to conditions: 10 nM PcTx1. Here is the method:
as §1, §2, §3, §4
A general note: In patch-clamp work, channel activity is measured electrically.

Regarding `N=C(N)NC(=O)c1nc(Cl)c(N)nc1N` [amiloride, reference compound], the figures for the “block of pH 6.0-induced current” value on rat ASIC1a [1] (0 mV) and at rat ASIC1a [1] (−80 mV) were 62.3 ± 0.7% and 86.8 ± 1.2%, respectively.

PcTx1 [reference compound]: the “pH50 of steady-state desensitization” value in the test with rat ASIC1a [2] came to 7.81 ± 0.02.

For the origin of these results see article PMC7873226, “Molecular mechanism and structural basis of small-molecule modulation of the gating of acid-sensing ion channel 1” (Communications Biology, 2021).
